Data as given in patent US10052320B2, “Substituted quinoxalines as FGFR kinase inhibitors” (ASTEX THERAPEUTICS LIMITED, priority 2011, dated 2018).
Counter-ions that a name gives are not always drawn.

How the values were obtained:
KDR (h) (VEGFR2) = KDR (h) (VEGFR2) (Homo sapiens, UniProt P35968); experiment: KDR (VEGFR2) (enzymatic assay), TR-FRET; type: biochemical
Procedure: KDR (VEGFR2) (Enzymatic Assay)
In a final reaction volume of 30 μL, KDR (h) (150 ng/ml) was incubated with 50 mM HEPES pH 7.5, 6 mM MnCl2, 1 mM DTT, 0.1 mM Na3VO4, 0.01% Triton-X-100, 500 nM Btn-Flt3 and 3 μM ATP in the presence of compound (1% DMSO final). After incubation for 120 minutes at room temperature the reaction was stopped with 2.27 nM EU-anti P-Tyr, 7 mM EDTA, 31.25 nM SA-XL-665 and 0.02% BSA which was present for 60 minutes at room temperature. Time-Resolved Fluorescence Resonance Energy Transfer (TR-FRET) signal (ex340 nm. Em 620 nm, em 655 nm) was measured afterwards and results are expressed in RFU (Relative Fluorescence Units).

[1] = target: Ba/F3-KDR-transfected cells (Homo sapiens, UniProt P35968); experiment: Ba/F3-KDR (minus IL3) cellular proliferation assay, Alamar Blue; type: cell-based; conditions: minus IL3
Procedure: Ba/F3-KDR (Minus IL3 or Plus IL3) (Cellular Proliferation Assay)
(§1) In a 384 well plate, 100 nl of compound dilution in DMSO was sprayed before adding 50 μl cell culture medium (phenol red free RPMI-1640, 10% FBS, 2 mM L-Glutamine and 50 μg/ml Gentamycin) containing 20000 cells per well of Ba/F3-KDR-transfected cells. Cells were put in an incubator at 37° C. and 5% CO2. After 24 hours, 10 μl of Alamar Blue solution (0.5 mM K3Fe(CN)6, 0.5 mM KaFe(CN)6, 0.15 mM Resazurin and 100 mM Phosphate Buffer) was added to the wells, incubated for 4 hours at 37° C. and 5% CO2 before RFU's (Relative Fluorescence Units) (ex. 540 nm., em. 590 nm.) were measured in a flurorescence plate reader.
As a counterscreen the same experiment was performed in the presence of 10 ng/ml murine IL3.
as §1, with “a 96” for “a 384”, “plate, 180” for “plate, 100 nl of compound dilution in DMSO was sprayed before adding 50”, “containing 10000” for “containing 20000”, “Ba/F3-KDR-transfected cells were pipette and 20 μl of compound dilution in DMSO was added.” for “Ba/F3-KDR-transfected cells.”, “hours, 40” for “hours, 10”, “CO2” for “CO2 before”

[2] = target: T1, Ba/F3-Flt3-transfected cells (Homo sapiens, UniProt P36888, cells depend on it, form not given); experiment: Ba/F3-Flt3 (minus IL3) cellular proliferation assay, Alamar Blue; type: cell-based; conditions: minus IL3
T1 sequence (P36888 1-993): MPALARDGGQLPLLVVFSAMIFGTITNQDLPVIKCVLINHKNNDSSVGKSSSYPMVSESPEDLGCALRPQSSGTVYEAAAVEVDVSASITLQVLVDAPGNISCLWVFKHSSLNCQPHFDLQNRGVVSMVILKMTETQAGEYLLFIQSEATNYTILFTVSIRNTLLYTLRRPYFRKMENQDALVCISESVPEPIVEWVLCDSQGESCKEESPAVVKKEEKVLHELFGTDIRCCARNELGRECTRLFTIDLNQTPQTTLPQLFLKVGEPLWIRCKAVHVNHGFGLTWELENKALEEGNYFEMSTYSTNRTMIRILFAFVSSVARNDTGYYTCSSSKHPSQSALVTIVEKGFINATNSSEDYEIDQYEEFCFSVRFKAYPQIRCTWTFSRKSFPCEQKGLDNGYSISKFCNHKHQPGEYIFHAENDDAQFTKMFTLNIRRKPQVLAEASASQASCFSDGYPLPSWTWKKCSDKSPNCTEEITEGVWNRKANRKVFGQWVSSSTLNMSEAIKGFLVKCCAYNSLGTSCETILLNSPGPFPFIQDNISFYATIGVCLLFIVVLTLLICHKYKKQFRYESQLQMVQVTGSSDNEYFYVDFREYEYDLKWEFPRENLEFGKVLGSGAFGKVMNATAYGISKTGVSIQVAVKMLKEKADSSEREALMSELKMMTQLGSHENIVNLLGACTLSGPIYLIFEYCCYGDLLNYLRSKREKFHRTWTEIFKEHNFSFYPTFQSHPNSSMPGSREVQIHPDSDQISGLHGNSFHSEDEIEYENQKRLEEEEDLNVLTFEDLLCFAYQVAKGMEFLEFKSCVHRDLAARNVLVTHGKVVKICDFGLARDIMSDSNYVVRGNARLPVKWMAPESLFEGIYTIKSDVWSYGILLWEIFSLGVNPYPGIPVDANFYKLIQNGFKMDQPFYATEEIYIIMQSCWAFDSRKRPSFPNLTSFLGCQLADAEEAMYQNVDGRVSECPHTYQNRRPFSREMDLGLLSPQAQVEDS
Procedure: Ba/F3-Flt3 (Minus IL3 or Plus IL3) (Cellular Proliferation Assay)
Cells were put in an incubator at 37° C. and 5% CO2. After 24 hours, 10 μl of Alamar Blue solution (0.5 mM K3Fe(CN)6, 0.5 mM KaFe(CN)6, 0.15 mM Resazurin and 100 mM Phosphate Buffer) was added to the wells, incubated for 4 hours at 37° C. and 5% CO2 before RFU's (Relative Fluorescence Units) (ex. 540 nm., em. 590 nm.) were measured in a flurorescence plate reader. […]
as §1, with “a 96” for “a 384”, “plate, 180” for “plate, 100 nl of compound dilution in DMSO was sprayed before adding 50”, “containing 10000” for “containing 20000”, “of Ba/F3-Flt3-transfected cells were pipette and 20 μl of compound dilution in DMSO was added.” for “of Ba/F3-KDR-transfected cells.”, “hours, 40” for “hours, 10”

Sequence of Ba/F3-KDR-transfected cells (P35968 whole entry, change not shown): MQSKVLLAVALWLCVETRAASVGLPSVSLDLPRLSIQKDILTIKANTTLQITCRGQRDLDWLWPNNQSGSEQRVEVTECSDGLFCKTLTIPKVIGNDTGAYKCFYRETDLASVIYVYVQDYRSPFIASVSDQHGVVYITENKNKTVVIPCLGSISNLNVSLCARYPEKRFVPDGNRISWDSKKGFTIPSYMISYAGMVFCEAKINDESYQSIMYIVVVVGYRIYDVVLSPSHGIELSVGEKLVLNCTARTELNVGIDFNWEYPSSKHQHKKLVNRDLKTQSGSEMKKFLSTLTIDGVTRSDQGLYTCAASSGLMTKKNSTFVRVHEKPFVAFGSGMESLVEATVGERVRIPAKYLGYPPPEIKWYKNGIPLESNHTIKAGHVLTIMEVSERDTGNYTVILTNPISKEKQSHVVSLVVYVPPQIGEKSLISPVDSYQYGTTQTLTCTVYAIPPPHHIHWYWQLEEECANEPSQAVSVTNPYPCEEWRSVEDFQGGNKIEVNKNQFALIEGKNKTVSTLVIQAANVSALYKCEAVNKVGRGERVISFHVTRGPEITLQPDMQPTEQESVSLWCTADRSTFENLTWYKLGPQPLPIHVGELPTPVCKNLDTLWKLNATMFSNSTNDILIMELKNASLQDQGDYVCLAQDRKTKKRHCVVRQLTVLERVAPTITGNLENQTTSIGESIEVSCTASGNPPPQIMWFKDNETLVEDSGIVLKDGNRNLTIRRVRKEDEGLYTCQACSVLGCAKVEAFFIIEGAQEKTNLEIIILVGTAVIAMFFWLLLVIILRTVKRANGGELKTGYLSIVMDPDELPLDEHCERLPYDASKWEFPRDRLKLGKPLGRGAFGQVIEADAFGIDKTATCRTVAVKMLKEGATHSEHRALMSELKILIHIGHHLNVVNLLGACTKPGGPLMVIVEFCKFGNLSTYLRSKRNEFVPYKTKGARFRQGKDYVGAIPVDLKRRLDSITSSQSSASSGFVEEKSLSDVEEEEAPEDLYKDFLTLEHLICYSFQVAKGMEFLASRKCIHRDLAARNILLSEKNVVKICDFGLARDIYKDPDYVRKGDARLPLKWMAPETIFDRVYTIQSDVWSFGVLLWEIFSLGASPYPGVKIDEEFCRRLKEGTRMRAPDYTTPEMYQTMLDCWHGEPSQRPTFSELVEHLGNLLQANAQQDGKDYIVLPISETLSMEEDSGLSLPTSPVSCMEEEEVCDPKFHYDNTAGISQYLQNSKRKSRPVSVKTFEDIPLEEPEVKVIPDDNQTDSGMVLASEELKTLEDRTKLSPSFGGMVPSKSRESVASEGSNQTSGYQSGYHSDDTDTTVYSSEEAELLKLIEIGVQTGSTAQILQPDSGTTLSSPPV
Sequence of KDR (h) (VEGFR2) (P35968 20-1356): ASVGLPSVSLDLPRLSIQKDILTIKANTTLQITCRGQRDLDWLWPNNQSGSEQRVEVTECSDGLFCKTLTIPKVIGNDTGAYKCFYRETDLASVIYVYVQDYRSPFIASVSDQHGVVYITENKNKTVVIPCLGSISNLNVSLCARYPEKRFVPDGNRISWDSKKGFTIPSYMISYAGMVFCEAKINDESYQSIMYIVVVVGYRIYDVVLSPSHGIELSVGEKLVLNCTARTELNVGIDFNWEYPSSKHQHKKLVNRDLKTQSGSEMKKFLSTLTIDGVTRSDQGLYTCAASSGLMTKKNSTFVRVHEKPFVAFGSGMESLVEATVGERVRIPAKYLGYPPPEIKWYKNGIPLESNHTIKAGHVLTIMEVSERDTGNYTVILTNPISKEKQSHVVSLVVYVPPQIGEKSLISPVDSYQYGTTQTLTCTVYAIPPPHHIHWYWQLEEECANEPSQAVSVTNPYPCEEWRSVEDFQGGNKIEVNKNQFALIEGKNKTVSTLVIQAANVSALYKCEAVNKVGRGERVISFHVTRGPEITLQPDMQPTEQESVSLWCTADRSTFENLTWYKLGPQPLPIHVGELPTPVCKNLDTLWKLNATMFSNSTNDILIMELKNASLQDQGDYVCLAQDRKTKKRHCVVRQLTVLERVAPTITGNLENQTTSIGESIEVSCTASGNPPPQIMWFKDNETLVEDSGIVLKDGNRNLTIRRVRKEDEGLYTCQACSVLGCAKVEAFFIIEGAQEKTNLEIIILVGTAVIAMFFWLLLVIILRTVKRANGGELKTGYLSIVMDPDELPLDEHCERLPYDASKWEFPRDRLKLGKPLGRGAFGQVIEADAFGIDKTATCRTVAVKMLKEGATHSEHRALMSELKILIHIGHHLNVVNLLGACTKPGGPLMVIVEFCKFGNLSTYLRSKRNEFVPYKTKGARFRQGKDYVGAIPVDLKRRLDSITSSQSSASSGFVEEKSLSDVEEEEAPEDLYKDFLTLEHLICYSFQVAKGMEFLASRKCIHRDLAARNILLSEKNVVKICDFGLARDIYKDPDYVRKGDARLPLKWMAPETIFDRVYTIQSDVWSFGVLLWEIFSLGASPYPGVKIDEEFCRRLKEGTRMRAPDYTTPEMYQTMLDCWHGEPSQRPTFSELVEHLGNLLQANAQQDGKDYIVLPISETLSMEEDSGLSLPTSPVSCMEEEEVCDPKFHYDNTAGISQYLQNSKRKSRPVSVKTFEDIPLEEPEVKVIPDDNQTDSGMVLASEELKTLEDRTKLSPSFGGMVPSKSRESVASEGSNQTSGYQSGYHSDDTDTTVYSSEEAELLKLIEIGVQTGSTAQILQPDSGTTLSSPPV

| Compound | melting point [°C] | other results |
| --- | --- | --- |
| COc1cc(OC)cc(N(CCNC(C)C)c2ccc3ncc(-c4cccnc4)nc3c2)c1 (as salt: HCl) (hydrate or solvate) [Compound 10] | 174 |  |
| COc1cc(OC)cc(N(CC2CC2)c2ccc3ncc(-c4ccc5c(ccn5C)c4)nc3c2)c1 (as salt: HCl) (hydrate or solvate) [Compound 20] | 105 |  |
| COc1cc(OC)cc(N(CCNC(C)C)c2ccc3ncc(N4CCC(CN)CC4)nc3c2)c1 (as salt: HCl) (hydrate or solvate) [Compound 67] | 193 |  |
| COc1cc(OC)cc(N(CCNC(C)C)c2ccc3ncc(-n4cnc(CO)c4)nc3c2)c1 (as salt: HCl) (hydrate or solvate) [Compound 77] | 150 |  |
| COc1cc(OC)cc(N(CCNC(C)C)c2ccc3ncc(-c4ccccc4)nc3c2)c1 (as salt: HCl) (hydrate or solvate) [Compound 121] | 149 |  |
| COc1cc(OC)cc(N(CCNC(C)C)c2ccc3ncc(-c4ccnc(C(=O)NCCCN)c4)nc3c2)c1 (as salt: HCl) (hydrate or solvate) [Compound 146] | 188 |  |
| COc1cc(OC)cc(N(CCCNCC(F)(F)F)c2ccc3ncc(C(=O)NCCN4CCOCC4)nc3c2)c1 (as salt: HCl) (hydrate or solvate) [Compound 158] | 138 |  |
| COc1cc(OC)cc(N(CCNC(C)C)c2ccc3ncc(C(=O)NCCCN4CCN(C)CC4)nc3c2)c1 (as salt: HCl) (hydrate or solvate) [Compound 159] | 176 |  |
| COc1cc(OC)cc(N(CCNC(C)C)c2ccc3ncc(C(=O)NCCN4CCOCC4)nc3c2)c1 (as salt: HCl) (hydrate or solvate) [Compound 160] | 149 |  |
| COc1cc(OC)cc(N(CCNC(C)C)c2ccc3ncc(NCC4CCNCC4)nc3c2)c1 (as salt: HCl) (hydrate or solvate) [Compound 161] | 185 |  |
| COc1cc(OC)cc(N(CCNC(C)C)c2ccc3ncc(C(=O)N4CCN(C)CC4)nc3c2)c1 (as salt: HCl) (hydrate or solvate) [Compound 179] | 250 |  |
| COc1cc(OC)cc(N(CCNC(C)C)c2ccc3ncc(C(=O)N4CCCCC4)nc3c2)c1 (as salt: HCl) (hydrate or solvate) [Compound 180] | 236 |  |
| COc1cc(OC)cc(N(CCNC(C)C)c2ccc3ncc(C(=O)N4CCOCC4)nc3c2)c1 (as salt: HCl) (hydrate or solvate) [Compound 181] | 255 |  |
| COc1cc(OC)cc(N(CCCNCC(F)(F)F)c2ccc3ncc(-c4ccn(C)c4)nc3c2)c1 (as salt: HCl) [Compound 5] | 186 |  |
| COc1cc(OC)cc(N(CCNC(C)C)c2ccc3ncc(-c4ccn(C)c4)nc3c2)c1 (as salt: HCl) [Compound 8] | 200 |  |
| COc1cc(OC)cc(N(CC2CC2)c2ccc3ncc(-n4ccnc4C)nc3c2)c1 (as salt: HCl) [Compound 32] | 223 |  |
| COc1cc(OC)cc(N(Cc2cccc(CN)n2)c2ccc3ncc(-c4ccc(N)nc4)nc3c2)c1 (as salt: HCl) [Compound 51] | 170 |  |
| COc1cc(OC)cc(N(CC2CC2)c2ccc3ncc(-c4ccn[nH]4)nc3c2)c1 (as salt: HCl) [Compound 58] | 134 |  |
| COc1cc(OC)cc(N(CCNC(C)C)c2ccc3ncc(-c4ccn[nH]4)nc3c2)c1 (as salt: HCl) [Compound 189] | 145 |  |
| COCC(CN(c1cc(OC)cc(OC)c1)c1ccc2ncc(-c3cccnc3)nc2c1)OC(C)=O (single isomer, unassigned) (as salt: HCl) (hydrate or solvate) [Compound 76] | 80 |  |
| COc1cc(OC)cc(N(CCN2C(=O)c3ccccc3C2=O)c2ccc3ncc(-c4ccc(N)nc4)nc3c2)c1 [Compound 57] | 222 |  |
| COc1cc(OC)cc(N(CC2CC2)c2ccc3ncc(-c4ccccc4)nc3c2)c1 [Compound 119] | 84 | IC50 (KDR (h) (VEGFR2)): > 1 µM; BAF3-KDR (MIN IL3) 384 well pIC50 [1]: <5; BAF3-FLT3 (MIN IL3) 384 well pIC50 [2]: <5 |
